We go through five compounds from patent publication US10300067B2, “Tetrahydropyridopyrimidine compound or salt thereof” (TAIHO PHARMACEUTICAL CO., LTD., priority 2014, dated 2019).

One assay has as its target androgen receptor (Homo sapiens (Human), UniProt P10275, T878A). Put plainly: Activity of reducing expression level of androgen receptor (Western blotting of LNCaP cell lysate). It is filed as cell-based. The note with it: 48 hours. In outline:
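LNCaP prostate cancer cells (AR T878A) in phenol red-free RPMI1640 with 5% FBS treated with compound at final 10000 nmol/L for 48 h. Cell lysates analysed by Western blot with anti-AR antibody; band quantified by chemiluminescence.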
For orientation: Immunoblotting shows a protein as a band on a membrane.

The target in another assay is human androgen receptor (Homo sapiens (Human), UniProt P10275). Put plainly: Antagonist activity for AR (pMMTV-luc reporter transcription activity in transfected COS-7 cells, DHT 1 nmol/L). The note with it: 50% transcription activity inhibition concentration; COS-7 cells with pMMTV-luc and pEX-hAR, DHT 1 nmol/L, 24 hours. Format: cell-based. In outline: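 COS-7 cells co-transfected with pMMTV-luc reporter and CMV-driven human AR expression vector, cultured overnight in phenol red-free RPMI1640 with 10% charcoal-treated FBS. Antagonism measured against 1 nmol/L DHT by luciferase transcription activity.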
human androgen receptor, sequence (P10275 whole entry): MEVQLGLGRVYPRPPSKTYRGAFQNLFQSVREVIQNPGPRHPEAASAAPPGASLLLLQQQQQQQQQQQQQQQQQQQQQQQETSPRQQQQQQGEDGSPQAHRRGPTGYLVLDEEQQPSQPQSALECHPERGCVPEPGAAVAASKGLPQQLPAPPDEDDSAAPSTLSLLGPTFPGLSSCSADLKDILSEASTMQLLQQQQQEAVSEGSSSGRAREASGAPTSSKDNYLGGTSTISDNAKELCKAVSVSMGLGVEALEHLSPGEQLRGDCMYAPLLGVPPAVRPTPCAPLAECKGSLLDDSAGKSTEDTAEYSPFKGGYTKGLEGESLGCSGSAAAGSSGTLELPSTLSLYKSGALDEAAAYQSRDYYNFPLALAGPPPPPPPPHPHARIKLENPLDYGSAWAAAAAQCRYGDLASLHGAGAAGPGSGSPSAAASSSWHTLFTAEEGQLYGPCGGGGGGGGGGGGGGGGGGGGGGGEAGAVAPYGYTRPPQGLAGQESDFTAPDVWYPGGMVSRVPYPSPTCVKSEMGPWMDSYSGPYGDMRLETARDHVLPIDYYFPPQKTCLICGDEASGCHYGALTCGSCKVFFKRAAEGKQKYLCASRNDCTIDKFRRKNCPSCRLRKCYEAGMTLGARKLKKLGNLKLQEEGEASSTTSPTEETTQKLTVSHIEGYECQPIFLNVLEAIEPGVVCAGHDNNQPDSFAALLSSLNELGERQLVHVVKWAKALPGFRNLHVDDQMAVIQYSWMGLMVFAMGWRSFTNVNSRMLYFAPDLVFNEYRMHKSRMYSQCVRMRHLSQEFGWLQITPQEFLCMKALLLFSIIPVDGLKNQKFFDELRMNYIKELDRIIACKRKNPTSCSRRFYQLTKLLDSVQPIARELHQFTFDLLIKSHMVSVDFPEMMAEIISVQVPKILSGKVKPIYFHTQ

The next assay deals with LNCaP-Xeno-IL-6 cells. Put plainly: Anti-tumor activity in in vivo model of castration resistant prostate cancer. The note with it: castrated male nude mice, oral, every day for 2 weeks. The method, then: From the AR positive human prostate cancer cells LNCaP, castration resistant prostate cancer cells, LNCaP-Xeno-IL-6 cells, were established based on the scientific paper (Clin Cancer Res, 2001 7:2941-8) (in the paper, the cells have been reported as LNCaP-IL-6+ cells) and used for the in vivo test. The LNCaP-Xeno-IL-6 cells were implanted subcutaneously in male nude mice, and the castration treatment was performed when the tumor volume reached about 200 mm^3. After the castration, the vehicle only (0.5% HPMC) or the compound of Examples suspended in the vehicle was orally administered to the mice every day for 2 weeks. The compound of Examples was administered such that there was no difference in an exposure amount between the compounds. After the administration for 2 weeks, the tumor volume of each mouse was recorded and the average tumor volume of the group administered with the evaluation compound relative to the average tumor volume of the group administered only with the vehicle, that is, T/C (%), was calculated based on the following formula. T/C (%)=(Average tumor volume of evaluation compound group)/(Average tumor volume of vehicle administration group)

Assay [1] concerns Human prostate cancer cells LNCaP. Put plainly: Androgen-dependent inhibitory activity on proliferation of prostate cancer cells. It is filed as cell-based. The following applies: 50% proliferation inhibition concentration, DHT 10 nmol/L, 72 hours, read-out: GI50 value. On the procedure:
Human prostate cancer cells LNCaP (Non-Patent Literature 5) having […] androgen receptor gene were seeded in a clear bottom 96 well microplate (BD) at 4.0×10^3/well with phenol red free RPMI1640 containing 5% DCC-FBS (hereinbelow, the medium is referred to as an evaluation medium), and then cultured overnight. The culture was added with the evaluation medium containing DHT (final concentration of DHT: 10 nmol/L) or the evaluation medium containing the compound of Examples or the compound of Comparative Examples (final concentration of the compound of Examples or the compound of Comparative Examples: 10, 30, 100, 300, 1000, 3000, 10000, or 30000 nmol/L), followed by culture for 72 hours. Then, the number of viable cells was counted. The number of viable cells was measured by using Cell Counting Kit-8 (DOJINDO LABORATORIES).

Assay [2] has as its system AR positive human prostate cancer cells VCaP. Put plainly: Agonist activity for AR (cell proliferation rate of VCaP cells). It is filed as cell-based. The note with it: 72 hours, 2 to 10000 nmol/L, more than 10% at any concentration = agonist activity for AR. In outline:
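VCaP cells seeded at 1.5×10^4/well in phenol-red-free RPMI1640 with 5% DCC-FBS, then exposed 72 h to compound at 2–10000 nmol/L (9 concentrations). Viable cells counted by CellTiter-Glo; proliferation rate (%) relative to medium-only control, agonist activity called when >10% at any concentration.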

androgen receptor, sequence (P10275 whole entry T878A): as the sequence (P10275 whole entry) above, with T878A counted along it

Take `CC(C)(O)c1ccc(Nc2ncnc3c2CCN(c2ccc(C#N)c(Cl)c2)C3)nn1` [Example 6, 2-chloro-4-(4-((6-(2-hydroxypropan-2-yl)pyridazin-3-yl)amino)-5,6-dihydropyrido[3,4-d]pyrimidin-7 (8H)-yl)benzonitrile]: the “10 μM AR expression reducing activity” value at androgen receptor is “reduced (When the AR expression reducing activity is 50% or more, it is described as “reduced”)”. At human androgen receptor, 70 nM corresponded to half-maximal inhibition (IC50). Moreover, the “T/C (%)” value in the assay with LNCaP-Xeno-IL-6 cells (daily dose 100 mg/kg/day) was found to be 29%. The GI50 (in general, the concentration that inhibits growth by half) in assay [1] was found to be 400 nM. Besides, in assay [2], the “Cell proliferation rate (%)” value is on record as −0.7%.
Regarding `N#Cc1ccc(N2CCc3c(ncnc3Nc3ccc(C(=O)NCC(F)(F)F)cn3)C2)cc1C(F)(F)F` [Example 11, 6-((7-(4-cyano-3-(trifluoromethyl)phenyl)-5,6,7,8,-tetrahydropyrido[3,4-d]pyrimidin-4-yl)amino)-N-(2,2,2-trifluoroethyl)nicotinamide], the “10 μM AR expression reducing activity” value at androgen receptor is given as “reduced (When the AR expression reducing activity is 50% or more, it is described as “reduced”)”. Half-maximal inhibition against human androgen receptor (IC50) required 30 nM. For the same compound, the “T/C (%)” value in the assay on LNCaP-Xeno-IL-6 cells (daily dose 200 mg/kg/day) is on record as 47%. Besides, the GI50 in assay [1] worked out at 380 nM. Further, the “Cell proliferation rate (%)” value in assay [2] was 2.9%.
As for `CC(C)(O)c1ccc(Nc2ncnc3c2CCN(c2ccc(C#N)c(C(F)(F)F)c2)C3)nc1` [Example 7, 4-(4-((5-(2-hydroxypropan-2-yl)pyridin-2-yl)amino)-5,6-dihydropyrido[3,4-d]pyrimidin-7(8H)-yl)-2-(trifluoromethyl)benzonitrile], at androgen receptor, the “10 μM AR expression reducing activity” value was “reduced (When the AR expression reducing activity is 50% or more, it is described as “reduced”)”. Further, the IC50 (commonly the point on the concentration scale where inhibition reaches its midpoint) on human androgen receptor stood at 160 nM. For the same compound, in the assay on LNCaP-Xeno-IL-6 cells (daily dose 30 mg/kg/day), the “T/C (%)” value was 49%. Besides, the GI50 in assay [1] turned out to be 500 nM. In addition, the “Cell proliferation rate (%)” value in assay [2] is on record as 4.9%.
For `N#Cc1ccc(N2CCc3c(ncnc3Nc3ccc(C(=O)NCc4nc(C(F)(F)F)cs4)cn3)C2)cc1C(F)(F)F` [Example 36, 6-((7-(4-cyano-3-(trifluoromethyl)phenyl)-5,6,7,8-tetrahydropyrido[3,4-d]pyrimidin-4-yl)amino)-N-((4-(trifluoromethyl)thiazol-2-yl)methyl)nicotinamide], the “10 μM AR expression reducing activity” value at androgen receptor is on record as “reduced (When the AR expression reducing activity is 50% or more, it is described as “reduced”)”. The IC50 against human androgen receptor stood at 170 nM. Moreover, the GI50 in assay [1] came to 300 nM. The “Cell proliferation rate (%)” value in assay [2] is −1.9%.
On to `CC(C)(O)c1ccc(Nc2ncnc3c2CCN(c2ccc(C#N)c(Cl)c2)C3)nc1` [Example 9, 2-chloro-4-(4-((5-(2-hydroxypropan-2-yl)pyridin-2-yl)amino)-5,6-dihydropyrido[3,4-d]pyrimidin-7 (8H)-yl)benzonitrile], for which the “10 μM AR expression reducing activity” value at androgen receptor is listed as “reduced (When the AR expression reducing activity is 50% or more, it is described as “reduced”)”. The compound also displayed an IC50 at human androgen receptor of 250 nM. Further, the “T/C (%)” value with LNCaP-Xeno-IL-6 cells (daily dose 15 mg/kg/day) was determined as 40%. Further, the GI50 in assay [1] amounted to 500 nM. Further, the “Cell proliferation rate (%)” value in assay [2] was −0.7%.
